Usually inhibition stands for the change of the read-out against control, counted positive when it falls.

The test has as its system MDA-MB-231. Nature of the test: Cytotoxicity against Homo sapiens (human) MDA-MB-231 cells assessed as inhibition of cell proliferation at 2 mM after 72 hr by MTS assay relative to control. Type of test: functional. Conditions: MDA-MB-231, 72 h. A general note: Tetrazolium dyes change colour on reduction, which living cells bring about.
Turning to `O=S(=O)(c1ccc(Cl)cc1)N1CCN(C(c2ccccc2)c2ccccc2)CC1`, the inhibition at 2000 µM is 1%.
On to `Cc1ccc(S(=O)(=O)N2CCN(C(c3ccccc3)c3ccccc3)CC2)cc1`, for which the inhibition at 2000 µM is 10%.
Take `CS(=O)(=O)N1CCN(C(c2ccccc2)c2ccccc2)CC1`: the inhibition at 2000 µM came out at 3.79%.
Take `CC(C)(C)c1ccc(S(=O)(=O)N2CCN(C(c3ccccc3)c3ccccc3)CC2)cc1`: the inhibition at 2000 µM amounted to 28.6%.
Take `Cc1noc(C)c1S(=O)(=O)N1CCN(C(c2ccccc2)c2ccccc2)CC1`: the inhibition at 2000 µM came to 20.6%.

(Values after ChEMBL document CHEMBL3046307, “Synthesis and evaluation of 1-benzhydryl-sulfonyl-piperazine derivatives as inhibitors of MDA-MB-231 human breast cancer cell proliferation” (2007).)
